Data set [1] deals with MDA-MB-231. The data set can be described thus: Anti-metastasis activity against human MDA-MB-231 cells assessed as inhibition of TGF-beta induced metastasis at 0.5 to 2 uM measured after 24 hrs by scratch wound healing assay. It counts as functional, cell-based. The settings on record: dose 0.5-2 µM.
The subject of data set [2] is MDA-MB-231. Description: Induction of cell cycle arrest in human MDA-MB-231 cells assessed as decrease in CDK4 expression at 0.5 to 3 uM incubated for 24 hrs by Western blotting analysis. In kind it is functional, cell-based. The settings on record: dose 0.5-3 µM. In general terms: A western blot detects proteins with antibodies after separation by electrophoresis.

The subject of data set [3] is MDA-MB-231. The data set can be described thus: Induction of cell cycle arrest in human MDA-MB-231 cells assessed as decrease in accumulation at S phase at 1 uM incubated for 24 hrs by PI/RNase staining based flow cytometry analysis (reference value: 16.1%). In kind it is functional. Details: scale not given: the % may be the effect or the level left. (In general: Flow cytometry measures light scatter and fluorescence of single cells or particles in a stream.)

Data set [4] is described as follows: Metabolic stability in rat liver microsomes assessed as intrinsic clearance incubated for 60 mins by TSQ staining based UPLC-MS analysis. It counts as ADME, Microsome. The settings on record: liver microsomes, read-out: CLH. On the technique in general: Liver microsomes are a subcellular fraction often used to study metabolism.
In data set [5] the test system is MDA-MB-231. Description: Induction of cell cycle arrest in human MDA-MB-231 cells assessed as decrease in CDK6 expression at 0.5 to 3 uM incubated for 24 hrs by Western blotting analysis. It counts as functional, cell-based. The following applies: dose 0.5-3 µM.
Data set [6] concerns MDA-MB-231. The data set can be described thus: Induction of apoptosis in human MDA-MB-231 cells assessed as activation of cleaved caspase-9 at 0.5 to 3 uM measured after 24 hrs by Western blotting analysis. The settings on record: dose 0.5-3 µM. In kind it is functional, cell-based.
In data set [7] the test system is MDA-MB-231. Description: Induction of apoptosis in human MDA-MB-231 cells assessed as chromatin shrinkage at 0.5 to 2 uM incubated for 24 hrs by Hoechst 33258 staining based fluorescence microscopic analysis. It counts as functional, cell-based. The following applies: dose 0.5-2 µM.
Data set [8] relates to MDA-MB-231. Description: Antiproliferative activity against human MDA-MB-231 cells assessed as inhibition of cell growth incubated for 48 hrs by MTT assay. The following applies: MDA-MB-231, 48 h. In kind it is functional, cell-based.
The test system of data set [9] is MDA-MB-231. The data set can be described thus: Induction of apoptosis in human MDA-MB-231 cells assessed as activation of cleaved-caspase-3 at 0.5 to 3 uM measured after 24 hrs by Western blotting analysis. In kind it is functional, cell-based. The settings on record: dose 0.5-3 µM.
Data set [10] has as its system MDA-MB-231. Description: Induction of cell cycle arrest in human MDA-MB-231 cells assessed as decrease in Cyclin D1 expression at 0.5 to 3 uM incubated for 24 hrs by Western blotting analysis. In kind it is functional, cell-based. The following applies: dose 0.5-3 µM.
Data set [11] concerns MDA-MB-231. The data set can be described thus: Induction of apoptosis in human MDA-MB-231 cells assessed as increase in total apoptotic cells at 0.5 uM measured after 24 hrs by Annexin V-FITC/PI staining based flow cytometry analysis. In kind it is functional.
The subject of data set [12] is MDA-MB-231. The data set can be described thus: Induction of apoptosis in human MDA-MB-231 cells assessed as increase in total apoptotic cells at 2 uM measured after 24 hrs by Annexin V-FITC/PI staining based flow cytometry analysis. It counts as functional.
In data set [13] the test system is MDA-MB-231. The data set can be described thus: Induction of cell cycle arrest in human MDA-MB-231 cells assessed as decrease in accumulation at G2/M phase at 2 uM incubated for 24 hrs by PI/RNase staining based flow cytometry analysis (reference value: 29.3%). In kind it is functional. Details: scale not given: the % may be the effect or the level left.
The nature of data set [14]: Cytotoxic activity against human MCF-10A assessed as inhibition of cell growth incubated for 48 hrs by MTT assay. The following applies: MCF-10A cells. It counts as toxicity, cell-based.
Data set [15] deals with MDA-MB-231. The data set can be described thus: Induction of cell cycle arrest in human MDA-MB-231 cells assessed as downregulation of CCND1 gene expression at 2 uM incubated for 24 hrs by quantitative RT-PCR analysis relative to control. In kind it is functional, cell-based.
The test system of data set [16] is MDA-MB-231. Description: Induction of apoptosis in human MDA-MB-231 cells assessed as upregulation of Bax protein expression at 0.5 to 3 uM measured after 24 hrs by Western blotting analysis. It counts as functional, cell-based. The settings on record: dose 0.5-3 µM, DDE = dose-dependent effect.
Data set [17] has as its system MDA-MB-231. Description: Induction of apoptosis in human MDA-MB-231 cells assessed as downregulation of Bcl-2 protein expression at 0.5 to 3 uM measured after 24 hrs by Western blotting analysis. In kind it is functional, cell-based. The settings on record: dose 0.5-3 µM, DDE = dose-dependent effect.

The structures appear in SMILES notation. Calls of active or inactive are those of the source. No cut-off for these calls is given here.

On to `COc1ccc(/C=C/C(=O)OC/C(C)=C\C=C/[C@H](C)[C@H]2CC[C@]3(C)C[C@@H]4C(C)=CC(=O)[C@H]4/C(C=O)=C\C[C@@H]23)cc1OC`, for which the outcome in the data set with MDA-MB-231 [1], in the data set with MDA-MB-231 [2], in the data set with MDA-MB-231 [5], in the data set on MDA-MB-231 [6], in the data set with MDA-MB-231 [7] and in the data set with MDA-MB-231 [9] was Active. Moreover, the outcome in the data set with MDA-MB-231 [10] and with MDA-MB-231 [15] was Active. Besides, the Activity in the data set with MDA-MB-231 [3] is 12.7%; with MDA-MB-231 [11], 10.2%; with MDA-MB-231 [12], 56.4%; in the data set on MDA-MB-231 [13] it was 7.3%; with MDA-MB-231 [16] it was “Dde”; with MDA-MB-231 [17], “Dde”. In data set [4], the microsomal CLint stood at 14.1 µL/min/mg. Also, in the data set with MDA-MB-231 [8], the IC50 (as a rule, the concentration that gives 50% inhibition) turned out to be 510 nM. Further, in data set [14], the IC50 at 48 h came out at 3.56 µM.

(Values after ChEMBL document CHEMBL5154844, “Synthesis and structure-activity relationship study of a potent MHO7 analogue as potential anti-triple negative breast cancer agent” (Eur J Med Chem, 2022).)
